# Measured values from ChEMBL document CHEMBL3286122, “Structure-assisted discovery of the first non-retinoid ligands for Retinol-Binding Protein 4” (Bioorg Med Chem Lett, 2014).
# Calls of active or inactive are those of the source. The calls are words filed in the database; no cut-off is given here.
# Tests used:
# [1] = molecular target: T1, Retinol-binding protein 4 (Homo sapiens, UniProt P02753); experiment: Inhibition of human recombinant RBP4-transthyretin interaction by FRET analysis
# [2] = molecular target: T1, Retinol-binding protein 4; experiment: Displacement of [3H]-retinol from human recombinant RBP4 by scintillation proximity assay
# [3] = Metabolic stability in rat liver microsomes assessed as compound remaining after 30 mins; type: ADME; details: read-out: Stability
# Liver microsome [4] = experiment: Drug metabolism in rat liver microsomes assessed as oxidation in pyridinyl piperazine region; type: ADME
# Liver microsome [5] = experiment: Drug metabolism in rat liver microsomes assessed as hydrolysis into primary urea; type: ADME
# Liver microsome [6] = experiment: Drug metabolism in human liver microsomes assessed as hydrolysis primary urea; type: ADME
# Liver microsome [7] = experiment: Drug metabolism in human liver microsomes assessed as oxidation in pyridinyl piperazine region; type: ADME
# Mus musculus [8] = organism: Mus musculus; experiment: Reduction in RBP4 level in chow-fed B6D2F1 mouse at 5 uM after 4 hrs; type: functional, organism-based
# [9] = Mean residence time in mouse at 30 mg/kg, po; type: ADME, organism-based; set-up: dose 30 mg/kg, route oral; details: in vivo
# [10] = Volume of distribution at steady state in rat at 0.5 mg/kg, iv; type: ADME, organism-based; set-up: dose 0.5 mg/kg, route intravenous; details: in vivo, read-out: Vdss
# [11] = Cmax in mouse at 30 mg/kg, po; type: ADME, organism-based; set-up: dose 30 mg/kg, route oral; details: in vivo
# [12] = Mean residence time in rat at 0.5 mg/kg, iv; type: ADME, organism-based; set-up: dose 0.5 mg/kg, route intravenous; details: in vivo
# Mus musculus [13] = organism: Mus musculus; experiment: Reduction in retinol level in chow-fed B6D2F1 mouse at 5 uM after 4 hrs; type: functional, organism-based
# [14] = AUC in mouse at 30 mg/kg, po; type: ADME, organism-based; set-up: dose 30 mg/kg, route oral; details: plasma
# [15] = AUC in rat at 0.5 mg/kg, iv; type: ADME, organism-based; set-up: dose 0.5 mg/kg, route intravenous; details: plasma
# [16] = Clearance in rat at 0.5 mg/kg, iv; type: ADME, organism-based; set-up: dose 0.5 mg/kg, route intravenous; details: in vivo
# Mus musculus [17] = organism: Mus musculus; experiment: Reduction in retinol level in chow-fed B6D2F1 mouse after 4 hrs; type: functional, organism-based
# [18] = Mean residence time in mouse at 5 mg/kg, po; type: ADME, organism-based; set-up: dose 5 mg/kg, route oral; details: in vivo
# Mus musculus [19] = organism: Mus musculus; experiment: Reduction in RBP4 level in chow-fed B6D2F1 mouse after 4 hrs; type: functional, organism-based
# [20] = AUC in mouse at 5 mg/kg, po; type: ADME, organism-based; set-up: dose 5 mg/kg, route oral; details: plasma
# [21] = Cmax in mouse at 5 mg/kg, po; type: ADME, organism-based; set-up: dose 5 mg/kg, route oral; details: in vivo
compound,measurement,setting,value
COc1ccc(Cl)cc1NC(=O)N1CCN(c2ncccc2C(F)(F)F)CC1C (stereo unspecified),IC50,[1],0.35 µM
same,IC50,[2],0.45 µM
COc1ccc(Cl)cc1NC(=O)N1CCN(c2ncccc2C(F)(F)F)CC1,remaining at 0.5 h,[3],1%
same,IC50,[1],0.13 µM
same,IC50,[2],0.23 µM
same,Drug metabolism,Liver microsome [4],metabolite_detected
same,Drug metabolism,Liver microsome [5],metabolite_detected
same,Drug metabolism,Liver microsome [6],metabolite_detected
same,Drug metabolism,Liver microsome [7],metabolite_detected
Cn1cncc1C(=O)N1CCC(c2ccccc2C(F)(F)F)CC1,IC50,[1],0.55 µM
same,IC50,[2],0.84 µM
O=C(c1ccco1)N1CCC(c2ccccc2C(F)(F)F)CC1,IC50,[1],0.052 µM
same,IC50,[2],0.12 µM
COc1ccc(Cl)cc1NC(=O)N1CCC(c2ccccc2C(F)(F)F)CC1,IC50,[1],0.023 µM
same,IC50,[2],0.16 µM
COc1ccc(Cl)cc1NC(=O)N1CCN(c2ccccc2)CC1,IC50,[2],30 µM
COc1ccc(Cl)cc1NC(=O)N1CCN(c2ncccc2Cl)CC1,IC50,[2],2.5 µM
COc1ccc(Cl)cc1NC(=O)N1CCN(c2ccccc2Cl)C(=O)C1,IC50,[2],3.6 µM
COc1ccc(Cl)cc1NC(=O)N1CCN(c2ccccc2C(F)(F)F)CC1,IC50,[1],0.017 µM
same,IC50,[2],0.07 µM
CC1=C(/C=C/C(C)=C/C=C/C(C)=C/C(=O)Nc2ccc(O)cc2)C(C)(C)CCC1 [FENRETINIDE],remaining at 0.5 h,[3],67%
same,Activity,Mus musculus [8],Active
same,MRT,[9],35 h
same,Vd,[10],3.2 L/kg
same,Cmax,[11],65 ng/mL
same,MRT,[12],10.5 h
same,Activity,Mus musculus [13],Active
same,AUC,[14],1210 ng·h/mL
same,AUC,[15],1660 ng·h/mL
same,clearance,[16],5 mL/min/kg
COC(=O)c1cccc(C(=O)N2CCC(c3ccccc3C(F)(F)F)CC2)c1,IC50,[1],0.6 µM
same,IC50,[2],0.83 µM
COc1ccc(Cl)cc1NC(=O)N1CCN(c2ncnc3sc4c(c23)CCC4)CC1,IC50,[1],0.6 µM
same,IC50,[2],0.36 µM
Cn1cnc(C(=O)N2CCC(c3ccccc3C(F)(F)F)CC2)c1,IC50,[1],0.017 µM
same,IC50,[2],0.11 µM
COc1ccc(Cl)cc1C(=O)N1CCN(c2ncnc3sc4c(c23)CCC4)C(C)C1 (stereo unspecified),IC50,[1],1.48 µM
same,IC50,[2],0.83 µM
COc1ccc(Cl)cc1NC(=O)N1CCN(c2ncc(C(F)(F)F)cc2C(F)(F)F)CC1,IC50,[2],2.2 µM
O=C(Cc1ccccc1C(F)(F)F)N1CCN(c2ncccc2C(F)(F)F)CC1,IC50,[1],> 10 µM
same,IC50,[2],3.61 µM
O=C(O)c1ccccc1NC(=O)N1CCC(c2ccccc2C(F)(F)F)CC1,remaining at 0.5 h,[3],> 90%
same,Activity,Mus musculus [17],Dose-dependent effect
same,EC50,"Mus musculus [17]; B6D2F1, 4 h",1.1 µM
same,MRT,[18],5.4 h
same,Vd,[10],0.045 L/kg
same,MRT,[12],9.7 h
same,Activity,Mus musculus [19],Dose-dependent effect
same,EC50,"Mus musculus [19]; B6D2F1, 4 h",0.98 µM
same,AUC,[20],17200 ng·h/mL
same,Cmax,[21],2950 ng/mL
same,AUC,[15],10700 ng·h/mL
same,Drug metabolism,Liver microsome [4],metabolite_notdetected
same,clearance,[16],0.0833 mL/min/kg
same,Drug metabolism,Liver microsome [7],metabolite_notdetected
COc1ccc(Cl)cc1NC(=O)N1CCN(Cc2c(Cl)cccc2Cl)CC1,IC50,[1],7.5 µM
same,IC50,[2],4.5 µM
COc1ccc(Cl)cc1NC(=O)N1CCCN(c2ncccc2C(F)(F)F)CC1,IC50,[1],0.67 µM
same,IC50,[2],0.48 µM
COc1ccc(Cl)cc1NC(=O)C1CCN(c2ncccc2C(F)(F)F)CC1,IC50,[2],1.1 µM
O=C(c1nccs1)N1CCC(c2ccccc2C(F)(F)F)CC1,IC50,[1],0.003 µM
same,IC50,[2],0.051 µM
O=C(c1cc(C(F)(F)F)[nH]n1)N1CCC(c2ccccc2C(F)(F)F)CC1,IC50,[1],0.12 µM
same,IC50,[2],0.24 µM
FC(F)(F)c1cccc(CN2CCN(c3ncccc3C(F)(F)F)CC2)c1,IC50,[1],> 10 µM
same,IC50,[2],> 30 µM
FC(F)(F)c1cccc(CN2CCN(c3ncnc4sc5c(c34)CCC5)CC2)c1,IC50,[1],0.024 µM
same,IC50,[2],0.6 µM
COc1ccc(Cl)cc1NC(=O)N1CCN(c2ccccn2)CC1,IC50,[1],> 30 µM
same,IC50,[2],> 30 µM
O=C(O)c1ccccc1NC(=O)N1CCN(c2ncccc2C(F)(F)F)CC1,remaining at 0.5 h,[3],51%
same,MRT,[18],3.2 h
same,Vd,[10],0.26 L/kg
same,MRT,[12],2.6 h
same,AUC,[20],3650 ng·h/mL
same,Cmax,[21],1000 ng/mL
same,AUC,[15],5080 ng·h/mL
same,Drug metabolism,Liver microsome [5],metabolite_notdetected
same,Drug metabolism,Liver microsome [6],metabolite_notdetected
same,clearance,[16],1.67 mL/min/kg
COc1ccc(Cl)cc1NC(=O)N1CCN(c2ccccc2Cl)CC1,IC50,[1],1.3 µM
same,IC50,[2],0.89 µM
O=C(c1cccc(C(F)(F)F)c1)N1CCC(c2ccccc2C(F)(F)F)CC1,IC50,[1],2.7 µM
same,IC50,[2],0.92 µM
COc1ccc(Cl)cc1NC(=O)N1CCN(CCc2ccccc2)CC1,IC50,[1],> 30 µM
same,IC50,[2],> 30 µM
FC(F)(F)c1ccnc(N2CCC(c3ccccc3C(F)(F)F)CC2)n1,IC50,[1],0.028 µM
same,IC50,[2],0.27 µM
O=C(c1cn(Cc2ccccc2)cn1)N1CCN(c2ccccc2Cl)CC1,IC50,[2],0.44 µM
COC(=O)c1ccccc1NC(=O)N1CCC(c2ccccc2C(F)(F)F)CC1,IC50,[1],0.018 µM
same,IC50,[2],0.091 µM
O=C(Cc1ccccc1C(F)(F)F)N1CCN(c2ncnc3sc4c(c23)CCC4)CC1,IC50,[1],0.06 µM
same,IC50,[2],0.28 µM
COc1ccc(Cl)cc1NC(=O)N1CCN(C)CC1,IC50,[2],> 30 µM
O=C(c1cnccc1C(F)(F)F)N1CCC(c2ccccc2C(F)(F)F)CC1,IC50,[1],0.076 µM
same,IC50,[2],0.13 µM
